Laboratory results as given in publication PMC3694096, “Development of Novel In Vivo Chemical Probes to Address CNS Protein Kinase Involvement in Synaptic Dysfunction” (PLoS ONE, 2013).
Like-named read-outs stand apart in the source and are kept apart here.

Experiments:
SGK2 = target: T1, SGK2 (Homo sapiens, UniProt Q9HBY8); assay: Kinome profiler screen; type: biochemical; settings: at 20,000 nM inhibitor; kinase activity remaining
T1 construct: purchased Millipore KinaseProfiler

Yes = target: T2, Yes (Homo sapiens, UniProt P07947); assay: Kinome profiler screen; type: biochemical; settings: at 20,000 nM inhibitor; kinase activity remaining
T2 construct: purchased Millipore KinaseProfiler
T2 sequence (P07947 whole entry): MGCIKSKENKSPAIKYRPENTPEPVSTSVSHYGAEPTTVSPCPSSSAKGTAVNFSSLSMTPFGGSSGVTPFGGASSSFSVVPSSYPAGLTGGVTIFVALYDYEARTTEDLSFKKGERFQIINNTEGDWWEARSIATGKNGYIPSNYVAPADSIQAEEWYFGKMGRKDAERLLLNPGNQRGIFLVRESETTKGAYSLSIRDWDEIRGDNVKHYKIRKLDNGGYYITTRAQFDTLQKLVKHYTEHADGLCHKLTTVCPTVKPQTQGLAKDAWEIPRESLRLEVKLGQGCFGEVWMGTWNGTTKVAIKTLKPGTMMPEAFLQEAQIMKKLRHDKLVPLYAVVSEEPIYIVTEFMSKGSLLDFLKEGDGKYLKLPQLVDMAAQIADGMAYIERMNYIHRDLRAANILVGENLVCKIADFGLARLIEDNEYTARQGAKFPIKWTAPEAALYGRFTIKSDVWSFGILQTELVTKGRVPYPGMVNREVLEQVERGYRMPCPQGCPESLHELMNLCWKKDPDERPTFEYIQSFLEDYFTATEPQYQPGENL

Met = target: T3, Met (Homo sapiens, UniProt P08581); assay: Kinome profiler screen; type: biochemical; settings: at 20,000 nM inhibitor; kinase activity remaining
T3 construct: purchased Millipore KinaseProfiler

DAPK2 = target: T4, DAPK2 (Homo sapiens, UniProt Q9UIK4); assay: Kinome profiler screen; type: biochemical; settings: at 20,000 nM inhibitor; kinase activity remaining
T4 construct: purchased Millipore KinaseProfiler

PI3 Kinase (p120γ) = target: T5, PI3 Kinase (p120γ) (Homo sapiens, UniProt P48736); assay: Kinome profiler screen; type: biochemical; settings: at 20,000 nM inhibitor; kinase activity remaining
T5 construct: purchased Millipore KinaseProfiler

ALK = target: T6, ALK (Homo sapiens, UniProt Q9UM73); assay: Kinome profiler screen; type: biochemical; settings: at 20,000 nM inhibitor; kinase activity remaining
T6 construct: purchased Millipore KinaseProfiler

TBK1 = target: T7, TBK1 (Homo sapiens, UniProt Q9UHD2); assay: Kinome profiler screen; type: biochemical; settings: at 20,000 nM inhibitor; kinase activity remaining
T7 construct: purchased Millipore KinaseProfiler

ACK1 = target: T8, ACK1 (Homo sapiens, UniProt Q07912); assay: Kinome profiler screen; type: biochemical; settings: at 20,000 nM inhibitor; kinase activity remaining
T8 construct: purchased Millipore KinaseProfiler
T8 sequence (Q07912 whole entry): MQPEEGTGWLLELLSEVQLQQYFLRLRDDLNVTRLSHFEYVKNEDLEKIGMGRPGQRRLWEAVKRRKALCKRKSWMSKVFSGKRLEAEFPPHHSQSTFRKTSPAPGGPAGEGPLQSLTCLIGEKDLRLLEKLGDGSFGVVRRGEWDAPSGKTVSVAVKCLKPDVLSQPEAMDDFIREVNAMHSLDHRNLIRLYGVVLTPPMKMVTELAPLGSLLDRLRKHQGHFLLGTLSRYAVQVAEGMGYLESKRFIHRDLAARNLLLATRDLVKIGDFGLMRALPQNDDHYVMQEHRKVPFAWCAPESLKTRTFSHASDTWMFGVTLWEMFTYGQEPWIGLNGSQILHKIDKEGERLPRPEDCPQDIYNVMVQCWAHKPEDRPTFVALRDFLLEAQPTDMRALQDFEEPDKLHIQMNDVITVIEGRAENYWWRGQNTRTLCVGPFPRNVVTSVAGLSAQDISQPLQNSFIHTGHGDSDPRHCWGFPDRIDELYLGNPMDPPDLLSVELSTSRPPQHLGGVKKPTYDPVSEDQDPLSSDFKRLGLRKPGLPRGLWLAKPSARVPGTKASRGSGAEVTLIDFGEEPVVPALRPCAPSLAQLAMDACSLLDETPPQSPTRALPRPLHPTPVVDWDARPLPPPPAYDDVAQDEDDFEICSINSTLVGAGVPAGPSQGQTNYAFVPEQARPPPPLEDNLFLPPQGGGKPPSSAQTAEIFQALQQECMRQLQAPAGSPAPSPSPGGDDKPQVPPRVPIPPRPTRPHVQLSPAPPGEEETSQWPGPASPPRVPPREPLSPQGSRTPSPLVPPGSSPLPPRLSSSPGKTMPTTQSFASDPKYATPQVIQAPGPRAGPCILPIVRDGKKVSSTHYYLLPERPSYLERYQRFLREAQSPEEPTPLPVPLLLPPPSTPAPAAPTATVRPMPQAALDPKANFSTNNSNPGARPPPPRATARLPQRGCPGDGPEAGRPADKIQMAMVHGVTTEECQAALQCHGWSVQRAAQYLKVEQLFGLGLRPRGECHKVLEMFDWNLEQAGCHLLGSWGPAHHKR

Rsk1 = target: T9, Rsk1 (Homo sapiens, UniProt Q15418); assay: Kinome profiler screen; type: biochemical; settings: at 20,000 nM inhibitor; kinase activity remaining
T9 construct: purchased Millipore KinaseProfiler

MSK2 = target: T10, MSK2 (Homo sapiens, UniProt O75676); assay: Kinome profiler screen; type: biochemical; settings: at 20,000 nM inhibitor; kinase activity remaining
T10 construct: purchased Millipore KinaseProfiler

PI3 Kinase (p110δ/p85α) = target: T11, PI3 Kinase (p110δ/p85α) (Homo sapiens, UniProt O00329); assay: Kinome profiler screen; type: biochemical; settings: at 20,000 nM inhibitor; kinase activity remaining
T11 construct: purchased Millipore KinaseProfiler

PKCα = target: T12, PKCα (Homo sapiens, UniProt P17252); assay: Kinome profiler screen; type: biochemical; settings: at 20,000 nM inhibitor; kinase activity remaining
T12 construct: purchased Millipore KinaseProfiler

PAK3 = target: T13, PAK3 (Homo sapiens, UniProt O75914); assay: Kinome profiler screen; type: biochemical; settings: at 20,000 nM inhibitor; kinase activity remaining
T13 construct: purchased Millipore KinaseProfiler
T13 sequence (O75914 whole entry): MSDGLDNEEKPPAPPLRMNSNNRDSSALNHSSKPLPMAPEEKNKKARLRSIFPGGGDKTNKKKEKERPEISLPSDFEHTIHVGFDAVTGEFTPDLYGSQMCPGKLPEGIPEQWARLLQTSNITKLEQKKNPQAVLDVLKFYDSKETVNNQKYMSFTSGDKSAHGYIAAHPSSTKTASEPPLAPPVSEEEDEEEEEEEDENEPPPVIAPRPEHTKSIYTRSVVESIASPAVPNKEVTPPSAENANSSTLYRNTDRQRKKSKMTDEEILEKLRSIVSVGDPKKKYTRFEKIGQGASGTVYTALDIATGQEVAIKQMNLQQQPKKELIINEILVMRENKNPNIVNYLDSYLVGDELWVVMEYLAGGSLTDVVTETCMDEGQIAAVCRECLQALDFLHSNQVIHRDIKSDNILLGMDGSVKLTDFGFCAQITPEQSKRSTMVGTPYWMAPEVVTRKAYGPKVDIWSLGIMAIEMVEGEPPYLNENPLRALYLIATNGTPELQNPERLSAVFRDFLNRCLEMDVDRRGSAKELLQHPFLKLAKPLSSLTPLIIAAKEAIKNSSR

Flt3 = target: T14, Flt3 (Homo sapiens, UniProt P36888); assay: Kinome profiler screen; type: biochemical; settings: at 20,000 nM inhibitor; kinase activity remaining
T14 construct: purchased Millipore KinaseProfiler

PKCγ = target: T15, PKCγ (Homo sapiens, UniProt P05129); assay: Kinome profiler screen; type: biochemical; settings: at 20,000 nM inhibitor; kinase activity remaining
T15 construct: purchased Millipore KinaseProfiler

Fms(Y969C) = target: T16, Fms(Y969C) (Homo sapiens, UniProt P07333, Y969C); assay: Kinome profiler screen; type: biochemical; settings: at 20,000 nM inhibitor; kinase activity remaining
T16 construct: purchased Millipore KinaseProfiler

ROCK-II = target: T17, ROCK-II (Homo sapiens, UniProt O75116); assay: Kinome profiler screen; type: biochemical; settings: at 20,000 nM inhibitor; kinase activity remaining
T17 construct: purchased Millipore KinaseProfiler

Met(D1246N) = target: T18, Met(D1246N) (Homo sapiens, UniProt P08581, D1228N); assay: Kinome profiler screen; type: biochemical; settings: at 20,000 nM inhibitor; kinase activity remaining
T18 construct: purchased Millipore KinaseProfiler

NLK = target: T19, NLK (Homo sapiens, UniProt Q9UBE8); assay: biochemical
T19 sequence (Q9UBE8 1-527): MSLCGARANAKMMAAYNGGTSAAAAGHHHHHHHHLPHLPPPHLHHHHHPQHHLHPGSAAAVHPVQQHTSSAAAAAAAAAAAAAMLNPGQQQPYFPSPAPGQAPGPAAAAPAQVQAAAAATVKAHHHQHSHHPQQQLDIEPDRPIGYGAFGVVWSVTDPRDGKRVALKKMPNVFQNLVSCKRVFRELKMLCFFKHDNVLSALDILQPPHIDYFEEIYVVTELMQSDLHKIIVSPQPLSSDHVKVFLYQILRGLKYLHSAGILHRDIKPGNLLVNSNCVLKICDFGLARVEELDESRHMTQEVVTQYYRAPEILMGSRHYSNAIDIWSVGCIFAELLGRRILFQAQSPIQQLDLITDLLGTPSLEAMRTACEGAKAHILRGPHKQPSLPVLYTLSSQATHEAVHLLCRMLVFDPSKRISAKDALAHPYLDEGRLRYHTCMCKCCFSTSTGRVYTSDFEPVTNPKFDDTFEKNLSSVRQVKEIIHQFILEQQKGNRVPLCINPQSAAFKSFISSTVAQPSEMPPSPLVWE

DDR2 = target: T20, DDR2 (Homo sapiens, UniProt Q16832); assay: Kinome profiler screen; type: biochemical
T20 construct: purchased Millipore
T20 sequence (Q16832 22-855): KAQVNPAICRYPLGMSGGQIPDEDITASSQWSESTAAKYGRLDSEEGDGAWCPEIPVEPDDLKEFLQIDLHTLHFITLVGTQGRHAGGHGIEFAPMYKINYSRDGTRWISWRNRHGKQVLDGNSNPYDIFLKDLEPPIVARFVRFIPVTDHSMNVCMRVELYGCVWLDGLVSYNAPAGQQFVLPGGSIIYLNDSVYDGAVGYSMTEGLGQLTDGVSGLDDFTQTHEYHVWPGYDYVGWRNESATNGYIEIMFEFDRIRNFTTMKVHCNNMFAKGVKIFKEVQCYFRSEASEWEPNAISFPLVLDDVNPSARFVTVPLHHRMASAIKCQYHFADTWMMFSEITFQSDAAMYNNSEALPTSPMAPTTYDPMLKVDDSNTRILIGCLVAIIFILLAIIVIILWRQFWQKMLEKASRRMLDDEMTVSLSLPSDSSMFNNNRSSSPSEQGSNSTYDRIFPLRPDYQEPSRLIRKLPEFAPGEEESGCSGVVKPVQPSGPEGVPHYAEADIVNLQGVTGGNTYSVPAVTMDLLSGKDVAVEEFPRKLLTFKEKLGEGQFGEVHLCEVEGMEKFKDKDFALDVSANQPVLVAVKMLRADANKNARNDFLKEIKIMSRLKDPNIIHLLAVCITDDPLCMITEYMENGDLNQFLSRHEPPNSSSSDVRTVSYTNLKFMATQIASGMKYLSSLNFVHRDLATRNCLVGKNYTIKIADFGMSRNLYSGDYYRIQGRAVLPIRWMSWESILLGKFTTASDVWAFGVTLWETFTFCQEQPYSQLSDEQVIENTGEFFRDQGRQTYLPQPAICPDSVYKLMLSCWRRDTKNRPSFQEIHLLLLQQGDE

PI3K-C2γ = target: T21, PI3K-C2γ (Homo sapiens, UniProt O75747); assay: Kinome profiler screen; type: biochemical; settings: at 20,000 nM inhibitor; kinase activity remaining
T21 construct: purchased Millipore KinaseProfiler
T21 sequence (O75747 whole entry): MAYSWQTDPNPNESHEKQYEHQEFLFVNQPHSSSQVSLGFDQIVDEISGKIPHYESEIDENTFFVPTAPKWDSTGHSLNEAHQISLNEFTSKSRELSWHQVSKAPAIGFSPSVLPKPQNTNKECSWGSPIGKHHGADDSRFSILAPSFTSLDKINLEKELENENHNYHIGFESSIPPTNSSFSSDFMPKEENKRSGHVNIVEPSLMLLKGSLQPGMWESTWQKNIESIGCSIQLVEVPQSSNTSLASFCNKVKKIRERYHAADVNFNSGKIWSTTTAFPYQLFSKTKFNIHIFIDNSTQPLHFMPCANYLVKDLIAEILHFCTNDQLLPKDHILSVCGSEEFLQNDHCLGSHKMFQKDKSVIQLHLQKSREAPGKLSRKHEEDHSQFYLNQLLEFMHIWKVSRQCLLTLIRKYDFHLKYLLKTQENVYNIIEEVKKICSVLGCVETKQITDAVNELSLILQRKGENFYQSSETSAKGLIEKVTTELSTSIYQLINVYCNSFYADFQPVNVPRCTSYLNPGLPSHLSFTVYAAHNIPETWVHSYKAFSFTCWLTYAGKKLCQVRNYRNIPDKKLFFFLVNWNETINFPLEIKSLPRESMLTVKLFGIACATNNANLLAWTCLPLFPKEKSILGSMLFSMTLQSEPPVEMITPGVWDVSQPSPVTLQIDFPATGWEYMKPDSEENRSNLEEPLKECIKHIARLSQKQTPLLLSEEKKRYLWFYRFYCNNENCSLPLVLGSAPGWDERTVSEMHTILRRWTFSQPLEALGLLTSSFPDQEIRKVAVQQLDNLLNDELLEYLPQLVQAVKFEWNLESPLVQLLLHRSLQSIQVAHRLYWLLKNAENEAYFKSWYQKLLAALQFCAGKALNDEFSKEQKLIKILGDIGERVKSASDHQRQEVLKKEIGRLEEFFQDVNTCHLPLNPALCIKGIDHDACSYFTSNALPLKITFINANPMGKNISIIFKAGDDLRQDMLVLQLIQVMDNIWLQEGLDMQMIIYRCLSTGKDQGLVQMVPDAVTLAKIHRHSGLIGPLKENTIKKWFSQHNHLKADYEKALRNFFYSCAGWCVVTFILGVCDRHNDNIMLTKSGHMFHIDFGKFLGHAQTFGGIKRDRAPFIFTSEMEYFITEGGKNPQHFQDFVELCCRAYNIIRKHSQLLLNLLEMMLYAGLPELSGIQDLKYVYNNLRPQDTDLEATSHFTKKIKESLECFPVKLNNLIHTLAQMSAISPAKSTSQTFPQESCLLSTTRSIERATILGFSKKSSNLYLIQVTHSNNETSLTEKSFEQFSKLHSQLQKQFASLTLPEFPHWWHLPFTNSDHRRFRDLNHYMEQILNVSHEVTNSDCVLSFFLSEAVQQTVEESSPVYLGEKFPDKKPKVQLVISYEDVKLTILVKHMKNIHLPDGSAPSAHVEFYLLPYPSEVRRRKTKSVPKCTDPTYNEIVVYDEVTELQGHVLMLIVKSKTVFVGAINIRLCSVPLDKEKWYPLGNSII

PAK2 = target: T22, PAK2 (Homo sapiens, UniProt Q13177); assay: Kinome profiler screen; type: biochemical; settings: at 20,000 nM inhibitor; kinase activity remaining
T22 construct: purchased Millipore KinaseProfiler

Fyn = target: T23, Fyn (Homo sapiens, UniProt P06241); assay: Kinome profiler screen; type: biochemical; settings: at 20,000 nM inhibitor; kinase activity remaining
T23 construct: purchased Millipore KinaseProfiler

PDGFRα(D842V) = target: T24, PDGFRα(D842V) (Homo sapiens, UniProt P16234, D842V); assay: Kinome profiler screen; type: biochemical; settings: at 20,000 nM inhibitor; kinase activity remaining
T24 construct: purchased Millipore KinaseProfiler
T24 sequence (P16234 24-1089 D842V): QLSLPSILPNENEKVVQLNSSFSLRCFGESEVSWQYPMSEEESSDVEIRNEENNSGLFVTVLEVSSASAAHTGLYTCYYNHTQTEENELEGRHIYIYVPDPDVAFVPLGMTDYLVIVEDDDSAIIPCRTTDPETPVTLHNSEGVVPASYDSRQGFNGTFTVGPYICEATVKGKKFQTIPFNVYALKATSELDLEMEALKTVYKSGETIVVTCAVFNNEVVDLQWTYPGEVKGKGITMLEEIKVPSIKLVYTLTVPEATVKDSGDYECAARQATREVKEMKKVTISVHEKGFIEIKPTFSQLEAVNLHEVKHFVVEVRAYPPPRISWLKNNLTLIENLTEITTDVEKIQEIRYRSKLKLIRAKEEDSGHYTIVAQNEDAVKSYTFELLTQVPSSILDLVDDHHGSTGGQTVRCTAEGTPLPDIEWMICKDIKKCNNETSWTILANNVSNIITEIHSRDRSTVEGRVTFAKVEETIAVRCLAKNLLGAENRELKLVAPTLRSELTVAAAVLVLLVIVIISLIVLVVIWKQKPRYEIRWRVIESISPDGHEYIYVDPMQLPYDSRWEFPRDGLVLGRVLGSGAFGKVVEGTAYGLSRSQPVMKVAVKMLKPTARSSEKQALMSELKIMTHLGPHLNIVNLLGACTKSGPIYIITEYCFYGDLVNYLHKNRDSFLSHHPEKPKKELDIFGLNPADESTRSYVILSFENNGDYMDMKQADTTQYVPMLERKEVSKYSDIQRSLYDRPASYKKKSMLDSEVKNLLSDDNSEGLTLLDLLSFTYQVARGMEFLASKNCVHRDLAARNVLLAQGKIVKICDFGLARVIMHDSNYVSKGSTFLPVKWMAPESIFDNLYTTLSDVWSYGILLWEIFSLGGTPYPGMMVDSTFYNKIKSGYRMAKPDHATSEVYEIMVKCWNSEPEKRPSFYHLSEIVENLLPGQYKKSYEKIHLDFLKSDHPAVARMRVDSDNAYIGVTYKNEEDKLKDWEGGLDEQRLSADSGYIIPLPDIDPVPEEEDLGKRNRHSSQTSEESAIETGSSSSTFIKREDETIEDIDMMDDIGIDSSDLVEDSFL

[1] = test system: IL-1β levels in brain cortex; assay: LPS-induced brain IL-1β in vivo; set-up: species or system C57Bl/6 mice; settings: 20 mg/Kg oral gavage 1 hr before LPS 0.5 mg/kg i.p.; brain cortex at 6 hrs

T1 sequence (Q9HBY8 whole entry): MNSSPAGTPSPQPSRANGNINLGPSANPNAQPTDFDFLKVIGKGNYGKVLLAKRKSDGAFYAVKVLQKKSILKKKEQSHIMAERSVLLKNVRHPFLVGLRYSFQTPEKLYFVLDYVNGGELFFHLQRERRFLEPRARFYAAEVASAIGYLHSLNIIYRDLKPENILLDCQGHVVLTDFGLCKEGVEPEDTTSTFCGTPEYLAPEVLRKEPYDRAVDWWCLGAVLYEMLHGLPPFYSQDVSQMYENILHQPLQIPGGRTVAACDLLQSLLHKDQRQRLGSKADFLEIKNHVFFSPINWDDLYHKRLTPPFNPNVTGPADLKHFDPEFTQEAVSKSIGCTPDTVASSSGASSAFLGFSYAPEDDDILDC

Compound	activity at 20 µM (SGK2)	activity at 20 µM (Yes)	activity at 20 µM (Met)	activity at 20 µM (DAPK2)	activity at 20 µM (PI3 Kinase (p120γ))	activity at 20 µM (ALK)	activity at 20 µM (TBK1)	activity at 20 µM (ACK1)	activity at 20 µM (Rsk1)	activity at 20 µM (MSK2)	activity at 20 µM (PI3 Kinase (p110δ/p85α))	activity at 20 µM (PKCα)	activity at 20 µM (PAK3)	activity at 20 µM (Flt3)	activity at 20 µM (PKCγ)	activity at 20 µM (Fms(Y969C))	activity at 20 µM (ROCK-II)	activity at 20 µM (Met(D1246N))	IC50 (NLK)	activity at 20 µM (PI3K-C2γ)	other results
CN(C)c1cc(-c2ccncc2)c(-c2cccc3ccccc23)nn1 [MW181, N,N-dimethyl-6-(naphthalen-1-yl)-5-(pyridin-4-yl)pyridazin-3-amine]	102%	87%	112%	106%	100%	107%	98%	106%	98%	99%	101%	86%	122%	93%	96%	91%	108%	104%	0.206 µM	97%	activity at 20 µM (DDR2; at 20,000 nM inhibitor, kinase activity remaining, read-out: % Activity): 86%; activity at 20 µM (PAK2): 101%; activity at 20 µM (Fyn): 109%; activity at 20 µM (PDGFRα(D842V)): 104%; LPS-induced IL-1β levels in vivo [1]: suppressed LPS-induced IL-1β levels in vivo
CN(C)c1cc(-c2ccncc2)c(-c2ccc3ccccc3c2)nn1 [MW108, N, N-dimethyl-6-(naphthalen-2-yl)-5-(pyridin-4-yl)pyridazin-3-amine]	92%	63%	118%	101%	101%	105%	96%	100%	93%	91%	100%	92%	78%	108%	93%	100%	99%	80%	1.21 µM	50%	activity at 20 µM (NLK): 20%; IC50 (DDR2): 2.86 µM; activity at 20 µM (DDR2): 11%; activity at 20 µM (PAK2): 103%; activity at 20 µM (Fyn): 95%; activity at 20 µM (PDGFRα(D842V)): 89%; LPS-induced IL-1β levels in vivo [1]: suppressed LPS-induced IL-1β levels in vivo
